Active and inactive are the calls of the source. The rule behind the calls is not given here.
How the values were obtained:
[1] = target: T1, Serine/threonine-protein kinase mTOR (Homo sapiens, UniProt P42345); assay: Inhibition of mTOR (unknown origin) at 100 nM by kinase profiling assay relative to control
J82 [2] = assay: Antiproliferative activity against human J82 cells assessed as inhibition of cell proliferation at 1 uM by CCK8 assay relative to control; assay type: functional
T-24 [3] = assay: Antiproliferative activity against human T24 cells assessed as inhibition of cell proliferation at 1 uM by CCK8 assay relative to control; assay type: functional
SW780 [4] = assay: Antiproliferative activity against human SW780 cells assessed as inhibition of cell proliferation at 1 uM by CCK8 assay relative to control; assay type: functional
SW780 [5] = assay: Induction of apoptosis in human SW780 cells assessed as viable cells at 0.2 uM incubated for 24 hrs by Annexin V-FITC/PI staining based flow cytometry (reference value: 92.3 %); assay type: functional; conditions: read-out: Activity
SW780 [6] = assay: Induction of apoptosis in human SW780 cells assessed as early apoptotic cells at 0.2 uM incubated for 24 hrs by Annexin V-FITC/PI staining based flow cytometry (reference value: 1.43 %); assay type: functional
SW780 [7] = assay: Induction of apoptosis in human SW780 cells assessed as late apoptotic cells at 0.2 uM incubated for 24 hrs by Annexin V-FITC/PI staining based flow cytometry (reference value: 2.30 %); assay type: functional
SW780 [8] = assay: Induction of apoptosis in human SW780 cells assessed as necrotic cells at 0.2 uM incubated for 24 hrs by Annexin V-FITC/PI staining based flow cytometry (reference value: 92.3 %); assay type: functional
SW780 [9] = assay: Induction of apoptosis in human SW780 cells assessed as viable cells at 0.5 uM incubated for 24 hrs by Annexin V-FITC/PI staining based flow cytometry (reference value: 92.3 %); assay type: functional; conditions: read-out: Activity
SW780 [10] = assay: Induction of apoptosis in human SW780 cells assessed as early apoptotic cells at 0.5 uM incubated for 24 hrs by Annexin V-FITC/PI staining based flow cytometry (reference value: 1.43 %); assay type: functional
SW780 [11] = assay: Induction of apoptosis in human SW780 cells assessed as late apoptotic cells at 0.5 uM incubated for 24 hrs by Annexin V-FITC/PI staining based flow cytometry (reference value: 2.30 %); assay type: functional
SW780 [12] = assay: Induction of apoptosis in human SW780 cells assessed as necrotic cells at 0.5 uM incubated for 24 hrs by Annexin V-FITC/PI staining based flow cytometry (reference value: 92.3 %); assay type: functional
SW780 [13] = assay: Induction of autophagy in human SW780 cells assessed as formation of autophagic vacuoles in cytoplasm by TEM analysis; assay type: functional, cell-based
SW780 [14] = assay: Induction of autophagy in human SW780 cells transfected with GFP-LC3 assessed as formation of autophagosomes at 0.5 uM incubated for 24 hrs by laser scanning confocal microscopic analysis; assay type: functional, cell-based
SW780 [15] = assay: Downregulation of CDK4 level in human SW780 cells at 0.2 to 0.5 uM by Western blot analysis; assay type: functional, cell-based; conditions: dose 0.2-0.5 µM
SW780 [16] = assay: Downregulation of c-Raf level in human SW780 cells at 0.2 to 0.5 uM by Western blot analysis; assay type: functional, cell-based; conditions: dose 0.2-0.5 µM
SW780 [17] = assay: Downregulation of CDC2 level in human SW780 cells at 0.2 to 0.5 uM by Western blot analysis; assay type: functional, cell-based; conditions: dose 0.2-0.5 µM
SW780 [18] = assay: Upregulation of Hsp70 level in human SW780 cells by Western blot analysis; assay type: functional, cell-based; conditions: dose 0.2-0.5 µM
SW780 [19] = assay: Downregulation of phosphorylated mTOR level in human SW780 cells at 0.2 to 0.5 uM by Western blot analysis; assay type: functional, cell-based; conditions: dose 0.2-0.5 µM
SW780 [20] = assay: Downregulation of phosphorylated AKT level in human SW780 cells at 0.2 to 0.5 uM by Western blot analysis; assay type: functional, cell-based; conditions: dose 0.2-0.5 µM
SW780 [21] = assay: Upregulation of LC3-II level in human SW780 cells at 0.2 to 0.5 uM by Western blot analysis; assay type: functional, cell-based; conditions: dose 0.2-0.5 µM
SW780 [22] = assay: Downregulation of p62 level in human SW780 cells at 0.2 to 0.5 uM by Western blot analysis; assay type: functional, cell-based; conditions: dose 0.2-0.5 µM
SW780 [23] = assay: Upregulation of cytochrome C level in human SW780 cells at 0.2 to 0.5 uM by Western blot analysis; assay type: functional, cell-based; conditions: dose 0.2-0.5 µM
SW780 [24] = assay: Upregulation of cleaved caspase-3 level in human SW780 cells at 0.2 to 0.5 uM by Western blot analysis; assay type: functional, cell-based; conditions: dose 0.2-0.5 µM
SW780 [25] = assay: Antiproliferative activity against human SW780 cells assessed as cell survival at 0.5 uM measured after 72 hrs by CCK8 assay relative to control; assay type: functional; conditions: read-out: Activity
SW780 [26] = assay: Upregulation of intracellular cathepsin B activity in human SW780 cells; assay type: functional, cell-based
SW780 [27] = assay: Upregulation of intracellular cathepsin B activity in human SW780 cells in presence of 3-MA; assay type: functional, cell-based
SW780 [28] = assay: Upregulation of intracellular cathepsin B activity in human SW780 cells in presence of Baf-A1; assay type: functional, cell-based
SW780 [29] = assay: Induction of autophagy in human SW780 cells transfected with GFP-LC3 assessed as formation of autophagosomes incubated for 6 hrs in presence of 3-MA by laser scanning confocal microscopic analysis; assay type: functional, cell-based
SW780 [30] = assay: Induction of autophagy in human SW780 cells transfected with GFP-LC3 assessed as formation of autophagosomes incubated for 6 hrs in presence of Baf-A1 by laser scanning confocal microscopic analysis; assay type: functional, cell-based
J82 [31] = assay: Antitumor activity against human J82 cells xenografted in nude Balb/c mouse assessed as tumor growth inhibition at 30 mg/kg, po administered everyday for 17 days; assay type: functional, organism-based; conditions: time 17.0 day
[32] = Toxicity in nude Balb/c mouse xenografted with human J82 cells assessed as body weight reduction at 30 mg/kg, po administered everyday for 17 days; assay type: organism-based; conditions: in vivo, 408 h, time 17 day
J82 [33] = assay: Antitumor activity against human J82 cells xenografted in nude Balb/c mouse assessed as […] at 30 mg/kg, po administered everyday for 17 days by IHC analysis; assay type: functional, organism-based; conditions: time 17.0 day
J82 [34] = assay: Antitumor activity against human J82 cells xenografted in nude Balb/c mouse assessed as decrease in mTOR phosphorylation level at 30 mg/kg, po administered everyday for 17 days by IHC analysis; assay type: functional, organism-based; conditions: time 17.0 day
J82 [35] = assay: Antitumor activity against human J82 cells xenografted in nude Balb/c mouse assessed as increase in LC3-II level at 30 mg/kg, po administered everyday for 17 days by IHC analysis; assay type: functional, organism-based; conditions: time 17.0 day
Heat shock protein HSP90 [36] = target: T2, Heat shock protein HSP90 (Homo sapiens, UniProt P07900+P08238); assay: Inhibition of Hsp90 (unknown origin) by TR-FRET assay; assay type: protein assay
[37] = target: T1, Serine/threonine-protein kinase mTOR; assay: Inhibition of mTOR (unknown origin) by kinase profiling assay
[38] = target: Phosphatidylinositol 4,5-bisphosphate 3-kinase catalytic subunit alpha isoform (Homo sapiens, UniProt P42336); assay: Inhibition of PI3Kalpha (unknown origin) by kinase profiling assay
Phosphatidylinositol 4,5-bisphosphate 3-kinase catalytic subunit alpha isoform, sequence (P42336 whole entry, canonical isoform): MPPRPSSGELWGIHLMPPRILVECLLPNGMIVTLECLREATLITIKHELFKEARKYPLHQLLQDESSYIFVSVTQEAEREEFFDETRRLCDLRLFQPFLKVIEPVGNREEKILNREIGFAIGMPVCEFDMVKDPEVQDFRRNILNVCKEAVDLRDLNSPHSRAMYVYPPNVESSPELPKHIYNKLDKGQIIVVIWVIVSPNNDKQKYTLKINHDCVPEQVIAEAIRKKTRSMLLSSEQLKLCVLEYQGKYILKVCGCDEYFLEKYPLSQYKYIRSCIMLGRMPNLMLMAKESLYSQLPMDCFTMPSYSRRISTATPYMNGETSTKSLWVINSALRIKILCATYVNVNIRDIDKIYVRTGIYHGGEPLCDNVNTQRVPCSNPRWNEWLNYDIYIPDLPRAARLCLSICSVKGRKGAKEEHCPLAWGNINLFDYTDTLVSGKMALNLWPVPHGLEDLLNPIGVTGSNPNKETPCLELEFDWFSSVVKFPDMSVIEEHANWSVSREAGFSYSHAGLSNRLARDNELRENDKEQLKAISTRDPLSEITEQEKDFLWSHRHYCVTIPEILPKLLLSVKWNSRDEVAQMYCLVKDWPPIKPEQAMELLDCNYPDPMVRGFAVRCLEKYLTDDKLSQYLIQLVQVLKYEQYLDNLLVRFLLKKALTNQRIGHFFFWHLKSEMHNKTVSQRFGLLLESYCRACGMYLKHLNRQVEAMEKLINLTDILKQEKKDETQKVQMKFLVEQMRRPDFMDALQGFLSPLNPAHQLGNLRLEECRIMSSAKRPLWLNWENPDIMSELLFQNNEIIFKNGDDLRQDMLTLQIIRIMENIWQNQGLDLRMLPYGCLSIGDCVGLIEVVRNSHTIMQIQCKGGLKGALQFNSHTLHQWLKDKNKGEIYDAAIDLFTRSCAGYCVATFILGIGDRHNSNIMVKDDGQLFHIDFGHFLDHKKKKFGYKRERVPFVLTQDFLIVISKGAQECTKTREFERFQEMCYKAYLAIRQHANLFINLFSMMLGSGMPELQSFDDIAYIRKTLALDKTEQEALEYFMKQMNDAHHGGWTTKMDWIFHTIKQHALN

J82 [39] = assay: Antiproliferative activity against human J82 cells assessed as inhibition of cell proliferation by CCK8 assay; assay type: functional, cell-based
T-24 [40] = assay: Antiproliferative activity against human T24 cells assessed as inhibition of cell proliferation by CCK8 assay; assay type: functional, cell-based
SW780 [41] = assay: Antiproliferative activity against human SW780 cells assessed as inhibition of cell proliferation by CCK8 assay; assay type: functional, cell-based
Heat shock protein HSP90 [42] = target: T2, Heat shock protein HSP90; conditions: dose 100.0 nM
Description: Inhibition of Hsp90 (unknown origin) at 100 nM by TR-FRET assay relative to control

CC(C)c1cc(C(=O)N2CCc3c(sc4nc(-c5ccc(NC(=O)Nc6ccc(F)c(Cl)c6)cc5)nc(N5CCOCC5)c34)C2)c(O)cc1O
inhibition [1]: 83.1%
inhibition at 1 µM (J82 [2]): 79.3%
inhibition at 1 µM (T-24 [3]): 91.7%
inhibition at 1 µM (SW780 [4]): 93.8%
viability at 0.2 µM (SW780 [5]): 87.6%
Activity (SW780 [6]): 4.77%
Activity (SW780 [7]): 3.29%
Activity (SW780 [8]): 4.38%
viability at 0.5 µM (SW780 [9]): 83.5%
Activity (SW780 [10]): 9.23%
Activity (SW780 [11]): 5.01%
Activity (SW780 [12]): 2.31%
Activity (SW780 [13]): Active
Activity (SW780 [14]): Active
Activity (SW780 [15]): Active
Activity (SW780 [16]): Active
Activity (SW780 [17]): Active
Activity (SW780 [18]): Dose-Dependent Effect
Activity (SW780 [19]): Active
Activity (SW780 [20]): Active
Activity (SW780 [21]): Active
Activity (SW780 [22]): Active
Activity (SW780 [23]): Active
Activity (SW780 [24]): Active
viability at 0.5 µM (SW780 [25]): < 40%
Activity (SW780 [26]): Active
Activity (SW780 [27]): inactive
Activity (SW780 [28]): inactive
Activity (SW780 [29]): inactive
Activity (SW780 [30]): Active
inhibition (J82 [31]): Active
Activity [32]: Non-Toxic
Activity (J82 [33]): Active
Activity (J82 [34]): Active
Activity (J82 [35]): Active
IC50 (Heat shock protein HSP90 [36]): 0.069 µM
IC50 [37]: 0.029 µM
IC50 [38]: 4.98 µM
IC50 (J82 [39]): 0.36 µM
IC50 (T-24 [40]): 0.41 µM
IC50 (SW780 [41]): 0.16 µM
inhibition (Heat shock protein HSP90 [42]): 83.3%

CC(C)c1cc(C(=O)N2CCc3c(sc4nc(-c5ccc(NC(=O)Nc6cccc(Cl)c6)cc5)nc(N5CCOCC5)c34)C2)c(O)cc1O
inhibition [1]: 75.2%
inhibition at 1 µM (J82 [2]): 84.7%
inhibition at 1 µM (T-24 [3]): 65%
inhibition at 1 µM (SW780 [4]): 89.8%
IC50 (Heat shock protein HSP90 [36]): 0.147 µM
IC50 [37]: 0.082 µM
IC50 [38]: 3.6 µM
IC50 (J82 [39]): 0.76 µM
IC50 (T-24 [40]): 1.72 µM
IC50 (SW780 [41]): 0.74 µM
inhibition (Heat shock protein HSP90 [42]): 72.7%

CC(C)c1cc(C(=O)N2CCc3c(sc4nc(N5CCOC[C@@H]5C)nc(N5CCOC[C@@H]5C)c34)C2)c(O)cc1O
inhibition [1]: 75.4%
inhibition at 1 µM (J82 [2]): 52.8%
inhibition at 1 µM (T-24 [3]): 55.4%
inhibition at 1 µM (SW780 [4]): 79.9%
IC50 (Heat shock protein HSP90 [36]): 0.476 µM
IC50 [37]: 0.073 µM
IC50 [38]: > 10 µM
IC50 (J82 [39]): 0.78 µM
IC50 (T-24 [40]): 1.68 µM
IC50 (SW780 [41]): 0.37 µM
inhibition (Heat shock protein HSP90 [42]): 56.6%

From ChEMBL document CHEMBL5352392, “Design, synthesis, and biological evaluation of novel dual inhibitors of heat shock protein 90/mammalian target of rapamycin (Hsp90/mTOR) against bladder cancer cells” (Eur J Med Chem, 2022)
